Legend:
melanoma cells B16 = assay: In vitro bleaching (whitening) activity: melanin content on melanoma cells B16; type: cell-based
Protocol: The in vitro whitening effect of HS was detected by measurement of melanin content on melanoma cells B16 (fibroblast-like cells able to produce melanin) after 6 days of contact with HS at 2 different concentrations: 0.1 mg/ml (0.01%) and 0.05 mg/ml (0.005%).
The negative control (NC) was represented by untreated cells (cell without any substance). The positive control (PC) was represented by cells treated with Hydroquinone 5 μg/ml (0.0005%).

[1] = system: human keratinocytes cell cultures; assay: In vitro anti-oxidant activity against UVA: ROS reduction on human keratinocytes cell cultures; type: cell-based; settings: for inhibition at 150 µg/mL: Homo sapiens, Keratinocyte, light or radiation study, Vit C 0.15 mg/ml
Protocol: In vitro Evaluation of the anti-ageing activity of cosmetic products through the investigation of their anti-oxidant and protective activity against UVA on human keratinocytes cell cultures. The antioxidant effect of HS is detected by measurement of reduction of free radicals as Reactive Oxygen Species (ROS) after exposure to 3 different UVA irradiation for 1 minute and 30 seconds (1′ 30″), for 3 minutes (3′) and for 4 minutes and 30 seconds (4′ 30″), with HS at 7 different concentrations: 0.031 mg/ml (0.0031%), 0.063 mg/ml (0.0063%), 0.125 mg/ml (0.0125%), 0.250 mg/ml (0.0250%), 0.500 mg/ml (0.0500%), 1.000 mg/ml (0.1000%) and […]. The negative control (NC) was: untreated cells (cells without any substance). The positive control (PC) was: Vitamin C (0.15 mg/ml) (0.015%).

fibroblast cells = assay: In vitro mitogenic activity: fibroblast cells proliferation and protein synthesis; type: cell-based
Protocol: The mitogenic effect of HS is detected by measurement of fibroblast cells proliferation, measurement of protein synthesis after exposure for 48 hours and 72 hours, using HS at 2 different concentrations: 0.1 mg/ml (0.01%) and 0.05 mg/ml (0.005%). The negative control (NC) is represented by untreated cells, the positive control (PC) is: EGF (Epidermal Growth Factor) (10 μg/ml) (0.001%).

basophil cells = assay: In vitro degranulation test on basophil cells (release of β-hexosaminidase); type: cell-based
Protocol: Basophil cells, when come in contact with irritant substances, give their biochemical response that is the secretion (by degranulation) of substances (such as histamine, leukotriens, proteolytic enzymes as hexosaminidase) that contribute to inflammatory events.
Inhibition in basophil cells degranulation is a measure of lenitive (anti-itching) effect of a substance. The in vitro lenitive effect of HS was detected by measurement of the release of β-hexosaminidase after 2 h of contact with HS at 4 different concentrations: 10 mg/ml (1%), 5 mg/ml (0.5%), 1 mg/ml (0.1%), 0.2 mg/ml (0.02%).
The negative control (NC) was represented by untreated cells (cells without any substance). The positive control (PC) was represented by basophil degranulation stimuli (by crosslinking the receptor FcεRI with a specific polyclonal antibody against to the α-chain stimulate the degranulation). The maximal stimulation (degranulation) is: cell treated with 1% Triton X-100. […]

[2] = APTT (European Pharmacopeia, 4th edition); settings: purified heparan sulfate
Protocol: Organic sulfur, Uronic acid, Glucosamine, Optical rotation, total nitrogen and APTT were measured in accordance with the European Pharmacopeia, 4th edition. Electrophoresis was performed in accordance with R. Cappelletti et al. “A new Electrophoretic method for the separation of all Gags” Anal. Biochem. 99:311-315 (1979).

[3] = Hydroquinone 0.0005% (5 μg/ml), positive control
[4] = HS 0.005% (0.05 mg/ml), 6 days of contact
[5] = HS 0.01% (0.1 mg/ml), 6 days of contact

Oc1ccc(O)cc1 [Hydroquinone, reference compound]
% Melanin Synthesis Inhibition vs NC (melanoma cells B16; [3]): 76.8%
Melanin Content (μg melanin/mg protein) (melanoma cells B16; [3]): 10.8 μg melanin/mg protein

O=C1O[C@H]([C@@H](O)CO)C(O)=C1O [Vit C, Vitamin C, reference compound]
inhibition at 150 µg/mL ([1]; 1′30″ UVA): 33.5%
inhibition at 150 µg/mL ([1]; 3′00″ UVA): 31.4%
inhibition at 150 µg/mL ([1]; 4′30″ UVA): 12.7%

EGF: EGF (Epidermal Growth Factor), positive control [reference compound]
% cell proliferation vs NC (fibroblast cells; 48 h, EGF 10 μg/ml (0.001%)): 112.5%
% protein synthesis vs NC (fibroblast cells; 48 h, EGF 10 μg/ml (0.001%)): 116.6%
% cell proliferation vs NC (fibroblast cells; 72 h, EGF 10 μg/ml (0.001%)): 121.6%
% protein synthesis vs NC (fibroblast cells; 72 h, EGF 10 μg/ml (0.001%)): 119.0%

Triton X-100 [reference compound]
release of β-hexosaminidase OD at 450 nm (basophil cells; maximal stimulation: 1% Triton X-100): 0.377 OD

heparan sulphate sodium salt [HS]
% cell proliferation vs NC (fibroblast cells; 48 h, HS 0.05 mg/ml (0.005%)): 106.7%
% protein synthesis vs NC (fibroblast cells; 48 h, HS 0.05 mg/ml (0.005%)): 110.2%
% cell proliferation vs NC (fibroblast cells; 48 h, HS 0.1 mg/ml (0.01%)): 110.5%
% protein synthesis vs NC (fibroblast cells; 48 h, HS 0.1 mg/ml (0.01%)): 103.1%
% cell proliferation vs NC (fibroblast cells; 72 h, HS 0.05 mg/ml (0.005%)): 118.2%
% protein synthesis vs NC (fibroblast cells; 72 h, HS 0.05 mg/ml (0.005%)): 120.4%
% cell proliferation vs NC (fibroblast cells; 72 h, HS 0.1 mg/ml (0.01%)): 118.1%
% protein synthesis vs NC (fibroblast cells; 72 h, HS 0.1 mg/ml (0.01%)): 113.2%
highest effect for cell proliferation (increase over NC) (fibroblast cells; 72 hour, 0.05 mg/ml): 18.2%
highest effect for protein synthesis (increase over NC) (fibroblast cells; 72 hour, 0.05 mg/ml): 20.4%
ROS Inhibition % ([1]; 1′30″ UVA, HS 0.031 mg/ml): 25.3%
ROS Inhibition % ([1]; 1′30″ UVA, HS 0.063 mg/ml): 25.4%
ROS Inhibition % ([1]; 1′30″ UVA, HS 0.125 mg/ml): 23.5%
ROS Inhibition % ([1]; 1′30″ UVA, HS 0.250 mg/ml): 28.0%
ROS Inhibition % ([1]; 1′30″ UVA, HS 0.500 mg/ml): 30.6%
ROS Inhibition % ([1]; 1′30″ UVA, HS 1.000 mg/ml): 38.7%
ROS Inhibition % ([1]; 1′30″ UVA, HS 9.000 mg/ml): 30.7%
ROS Inhibition % ([1]; 3′00″ UVA, HS 0.031 mg/ml): 20.1%
ROS Inhibition % ([1]; 3′00″ UVA, HS 0.063 mg/ml): 21.8%
ROS Inhibition % ([1]; 3′00″ UVA, HS 0.125 mg/ml): 14.2%
ROS Inhibition % ([1]; 3′00″ UVA, HS 0.250 mg/ml): 22.9%
ROS Inhibition % ([1]; 3′00″ UVA, HS 0.500 mg/ml): 29.1%
ROS Inhibition % ([1]; 3′00″ UVA, HS 1.000 mg/ml): 35.7%
ROS Inhibition % ([1]; 3′00″ UVA, HS 9.000 mg/ml): 31.6%
ROS Inhibition % ([1]; 4′30″ UVA, HS 0.031 mg/ml): 6.2%
ROS Inhibition % ([1]; 4′30″ UVA, HS 0.063 mg/ml): 13.7%
ROS Inhibition % ([1]; 4′30″ UVA, HS 0.125 mg/ml): 10.3%
ROS Inhibition % ([1]; 4′30″ UVA, HS 0.250 mg/ml): 18.1%
ROS Inhibition % ([1]; 4′30″ UVA, HS 0.500 mg/ml): 24.7%
ROS Inhibition % ([1]; 4′30″ UVA, HS 1.000 mg/ml): 30.4%
ROS Inhibition % ([1]; 4′30″ UVA, HS 9.000 mg/ml): 26.3%
antioxidant efficacy compared with Vitamin C ([1]; HS at 0.1% concentration): comparable or even higher than the efficacy of Vitamin C
in vitro whitening effect (melanoma cells B16; 0.1 and 0.05 mg/ml, 6 days): shows in vitro whitening effect
% Melanin Synthesis Inhibition vs NC (melanoma cells B16; [4]): 5.2%
Melanin Content (μg melanin/mg protein) (melanoma cells B16; [4]): 44.4 μg melanin/mg protein
% Melanin Synthesis Inhibition vs NC (melanoma cells B16; [5]): 10.3%
Melanin Content (μg melanin/mg protein) (melanoma cells B16; [5]): 41.9 μg melanin/mg protein
release of β-hexosaminidase OD at 450 nm (basophil cells; HS 0.2 mg/ml + PC (degranulation stimulus)): 0.112 OD
release of β-hexosaminidase OD at 450 nm (basophil cells; HS 0.2 mg/ml alone, 2 h of contact): 0.061 OD
release of β-hexosaminidase OD at 450 nm (basophil cells; HS 1 mg/ml + PC (degranulation stimulus)): 0.110 OD
release of β-hexosaminidase OD at 450 nm (basophil cells; HS 1 mg/ml alone, 2 h of contact): 0.062 OD
release of β-hexosaminidase OD at 450 nm (basophil cells; HS 5 mg/ml + PC (degranulation stimulus)): 0.055 OD
release of β-hexosaminidase OD at 450 nm (basophil cells; HS 5 mg/ml alone, 2 h of contact): 0.059 OD
release of β-hexosaminidase OD at 450 nm (basophil cells; HS 10 mg/ml + PC (degranulation stimulus)): 0.061 OD
release of β-hexosaminidase OD at 450 nm (basophil cells; HS 10 mg/ml alone, 2 h of contact): 0.066 OD
level of β-hexosaminidase with irritant substance (positive control) and HS (basophil cells; HS + PC, best efficacy at 0.5% and 1%): decrease in a dose dependent way
effect on basophil cells degranulation (basophil cells; HS alone at different concentration): no effect on basophil cells degranulation
APTT [2]: 6.31 U/mg

Source: patent publication US20160338935A1, “PROCESS FOR THE PURIFICATION OF HEPARAN SULFATE AND USE THEREOF IN COSMETOLOGICAL AND DERMATOLOGICAL PREPARATIONS” (LABORATORI DERIVATI ORGANICI SPA, priority 2008, published 2016)
